# Assay results from US9555016B2, “Lytic agents for use in treating intravascular clots” (priority 2013, dated 2017).
# Structures can show the parent of a compound that is named as a salt.
# Tests used:
# [1] = system: chronic clots, formed of collagen; assay: Mechanical compression testing (Texture Analyzer) of chronic collagen clots
# Protocol: The clots were subjected to mechanical testing to determine the effects of the guanidine chloride on the hardness of the clot, as well as its elasticity and lytic resistance. Briefly, a Texture Analyzer manufactured by Texture Technologies Corporation, running Exponent Software from Texture Technologies Corporation was used. […] Clot samples having a thickness of about 1 mm were prepared and placed underneath the probe, until the probe was about 3 mm above the sample surface. The Texture Analyzer subjected the sample to a 0.5 mm compression test, and then a 1 mm compression test. Chronic clots, formed of collagen, were formed and treated with guanidine hydrochloride. Chronic collagen clots were formed by reverse dialysis, as generally disclosed in Knight, et al., “In vitro formation by reverse dialysis of collagen gels containing highly oriented arrays of fibrils,” J. Biomed. Mater. Res., 41, 185-191 (1998). Briefly, about 1.5 grams collagen was combined with about 45 ml distilled water and 5 ml of 0.5 M acetic acid. A dialysis solution was prepared with 2% polyethylene glycol (PEG) in about 10 mM of a Tris base buffer (2000 ml distilled water added to 40 grams PEG and 2.422 grams Tris Base (also known as Trimethylol Aminomethane, Tris(hydroxymethyl)aminomethane)). […] Fibril formation was allowed to proceed over a period of about 48 hours, at which time the collagen was collected and stored in about 10 mM Tris-base solution at a pH of about 7.4 and stored at about 4° C. Additional chronic clots were prepared by combining collagen gels produced as above, and then adding genipin thereto (about 5 mM genipin solution in about 0.9% sodium chloride). Chronic clots thus formed were subjected to the hardness and gravimetric tests described above in Example 1.
# [2] = system: acute clots, formed from ovine blood; assay: Mechanical compression testing (Texture Analyzer) of acute clots; conditions: acute blood clot, after 1 hour of treatment
# Protocol: (§1) Acute clots, formed from ovine blood, were formed and treated with guanidine hydrochloride. Clots were formed following the general procedures set forth in Luo et al., “Creation Of Fibrinogen-Enhanced Experimental Blood Clots To Evaluate Mechanical Thrombectomy Devices For Treatment Of Acute Stroke: An In Vitro Study,” J. Vase. Interv. Radiol. 2012 August; 23(8): 1077-83. Briefly, ovine blood was contacted with about […] thrombin and about 25 mM calcium chloride. Additional acute clots were formed where about 40 mg/ml fibrinongen was first added to the ovine blood.
# Guanidine chloride at concentrations of 6 M and 12 M in 0.9% sodium chloride were added to the clots, with untreated clots and clots treated with 0.2 mg/ml tPA used as controls.
# The clots were subjected to mechanical testing to determine the effects of the guanidine chloride on the hardness of the clot, as well as its elasticity and lytic resistance. Briefly, a Texture Analyzer manufactured by Texture Technologies Corporation, running Exponent Software from Texture Technologies Corporation was used. […] Clot samples having a thickness of about 1 mm were prepared and placed underneath the probe, until the probe was about 3 mm above the sample surface. The Texture Analyzer subjected the sample to a 0.5 mm compression test, and then a 1 mm compression test. […]
# [3] = system: acute clots, formed from ovine blood; assay: Gravimetric testing of lytic resistance of acute clots
# Protocol: as §1
# Gravimetric testing to determine lytic resistance of the clots was carried out as follows. Briefly, an incubation shaker was heated to about 37° C. Clots were allowed to rest at a temperature of about 4° C. for 24 hours prior to testing. About 200-300 mg of clot samples were weighed out, with 1 sample placed per well in a 24 well plate. Weights were recorded.
# Guanidine hydrochloride solutions were prepared as follows:
# 1. 12 M Guanidine hydrochloride (GH): 22.93 g GH+20 ml 0.9% sodium chloride
# 2. 6 M GH: 10 ml 12 M GH+10 ml 0.9% sodium chloride
# 3. 3 M GH: 10 ml 6 M GH+10 ml 0.9% sodium chloride
# 4. 1 M GH: 10 ml 3 M GH+20 ml 0.9% sodium chloride
# 6. 0.5 M GH: 10 ml 1 M GH+10 ml 0.9% sodium chloride
# About 1 ml of each solution was placed in each well. […] The weight was recorded at each time point. […]
# [4] = system: chronic clots, formed of collagen; assay: Gravimetric testing of lytic resistance of chronic collagen clots
# Protocol: Gravimetric testing to determine lytic resistance of the clots was carried out as follows. Briefly, an incubation shaker was heated to about 37° C. Clots were allowed to rest at a temperature of about 4° C. for 24 hours prior to testing. About 200-300 mg of clot samples were weighed out, with 1 sample placed per well in a 24 well plate. Weights were recorded. About 1 ml of each solution was placed in each well. The plate was then placed into the incubation shaker and shaken at 160 rpm for 1 hour and 3 hours. The weight was recorded at each time point. Lytic resistance was defined as follows, as the percent clot remaining: [formula] Chronic clots, formed of collagen, were formed and treated with guanidine hydrochloride. Chronic collagen clots were formed by reverse dialysis, as generally disclosed in Knight, et al., “In vitro formation by reverse dialysis of collagen gels containing highly oriented arrays of fibrils,” J. Biomed. Mater. Res., 41, 185-191 (1998). Briefly, about 1.5 grams collagen was combined with about 45 ml distilled water and 5 ml of 0.5 M acetic acid. A dialysis solution was prepared with 2% polyethylene glycol (PEG) in about 10 mM of a Tris base buffer (2000 ml distilled water added to 40 grams PEG and 2.422 grams Tris Base (also known as Trimethylol Aminomethane, Tris(hydroxymethyl)aminomethane)). […]
# [5] = chronic clots prepared without genipin
compound,measurement,setting,value
N=C(N)N [guanidine hydrochloride],elasticity after treatment,[1]; [5],dissolved/broken down to a point where elasticity could not be measured
same,hardness after treatment,[1]; [5],dissolved/broken down to a point where hardness could not be measured
same,"effect on hardness (summary, FIG. 3)",[1]; chronic collagen clots,significant decrease in hardness
same,"effect on hardness (summary, FIG. 2)",[2],significant effect on the hardness
same,clot weight (summary of gravimetric testing),"[3]; acute blood-based clot models, increased concentrations",did not show a decrease in weight
same,lytic resistance versus molar concentration,"[3]; acute clots, increasing molar concentration of guanidine hydrochloride",lytic resistance decreased upon increase in the molar concentration
same,lytic resistance versus molar concentration,"[4]; chronic clots, increasing molar concentration of guanidine hydrochloride",lytic resistance decreased upon increase in the molar concentration
same,dissolution of clot (summary),"[4]; chronic collagen-based clots, after 1 hour, even at low concentrations",dissolve most of the collagen clot models
